Experimental data as given in paper PMC12673918, “Design, Synthesis, and Selective Antiproliferative Activity of Indolizine Derivatives as Microtubule Destabilizers” (Archiv Der Pharmazie, 2025).
Read-outs that look alike come from different tables or passages of the source.

How the values were obtained:
[1] = test system: CAL‐27 (oral carcinoma); test: Resazurin cell viability assay, CAL‐27; format: cell-based; conditions: Homo sapiens, CAL-27
Method: (§1) The tongue squamous cell carcinoma cell line CAL‐27 (ATCC CRL‐2095), breast carcinoma BT‐20 (ATCC HTB‐19), gastric carcinoma HGC‐27 (BCRJ Code 0310), and normal oral fibroblast OHMF (culture of fibroblasts derived from human oral healthy mucosa, approved by the Research Ethics Committee of the University of São Paulo, Campus of Ribeirão Preto, Brazil (with protocol number 049) were cultured in DMEM medium (DMEM, Sigma‐Aldrich, St. Louis, MO, USA) supplemented with 10% fetal bovine serum and a solution of penicillin (100 U/mL) and streptomycin (100 μg/mL). The cultures were maintained in a humidified incubator with 5% CO₂ at 37°C.
(§2) Cell viability was analyzed using the resazurin assay. For this, cells were seeded in 96‐well plates (1 × 10^3 cells per well) and incubated at 37°C with 5% CO₂ overnight for cell adhesion. Subsequently, the cells were treated with different compounds (0–50 µM) for 72 h. After treatment, the medium was replaced with phenol‐free DMEM medium (Sigma‐Aldrich) containing resazurin at a concentration of 44 µM (Sigma‐Aldrich). After incubation for 4 h at 37°C, fluorescence detection was performed (excitation 530/25 nm, emission 590/35 nm) using a microplate fluorimeter (Synergy 2, Biotek). Initial cell growth inhibition assays were performed in triplicate or quadruplicate, while IC50 determinations were conducted in triplicate. Data were plotted, and IC₅₀ values were determined by nonlinear regression using GraphPad Prism software 9.0.
(§3) ^a Cell viability was assessed using the resazurin assay after 72 hours of compound treatment. Fluorescence was measured to estimate % of cellular growth inhibition at 50 µM values, based on triplicate experiments.
(§4) ^b IC50 values were determined using the same resazurin-based assay, with fluorescence measurements performed after 72 hours of treatment. These experiments were carried out in triplicate.

[2] = test system: BT‐20 (breast carcinoma); test: Resazurin cell viability assay, BT‐20; format: cell-based; conditions: Homo sapiens, BT-20
Method: as §1, §2, §3, §4

[3] = test system: HGC‐27 (gastric carcinoma); test: Resazurin cell viability assay, HGC‐27; format: cell-based; conditions: Homo sapiens, HGC-27
Method: as §1, §2, §3, §4

[4] = test system: MKN‐45 (gastric carcinoma) cells; conditions: cited from earlier work
[5] = test system: stomach carcinoma cell line (NUGC3); set-up: method as in PMID 15293996, PMID 23237054; conditions: cited from earlier work
[6] = test system: OHMF (non‐tumoral oral fibroblast); test: Resazurin cell viability assay, OHMF fibroblasts; format: cell-based; conditions: Homo sapiens, 72 h, n = 3
Method: as §1, §2

[7] = test system: tubulin; test: Tubulin polymerization (inhibition) assay kit; format: biochemical; conditions: for IC50: n = 2
Method: To evaluate the effect of the compounds on tubulin polymerization, the Tubulin Polymerization Assay Kit (Cytoskeleton Inc.) was used according to the manufacturer's instructions. Briefly, 5 µL of the compounds (final concentration ranging from 0.1 to 100 µM) were pipetted per well into a pre‐warmed 96‐well black‐bottom plate at 37°C. After 1 min, 55 µL of the tubulin reaction mix (1X Buffer 1, 0.7X Tubulin Glycerol Buffer, 1 mM GTP, and 2 mg/mL tubulin) was added to each well. Next, after 5 s of shaking, fluorescence detection (excitation: 340–360 nm, emission: 410–460 nm) was performed using a microplate fluorimeter. […] Data were plotted, and IC₅₀ values were determined by nonlinear regression using GraphPad Prism software 9.0.
^c Tubulin polymerization was evaluated using a commercial assay kit, following standard procedures. Compounds were incubated with tubulin, and fluorescence was measured over time to generate kinetic curves and determine the maximum polymerization rate (Vmax). These experiments were carried out in duplicate.

[8] = test system: BT‐20 breast cancer cells; test: Cell‐cycle assay by flow cytometry; format: cell-based; conditions: 2.5 µM, 24 h
Method: BT‐20 cells were seeded in 10 cm plates (1.5 × 10⁶ cells/plate) and incubated at 37°C with 5% CO₂ for 24 h. Subsequently, the cells were treated with different compounds at a concentration of 2.5 µM for 24 h. After treatment, the cells were collected by centrifugation and fixed in cold 70% ethanol for 1 h at 4°C. The cells were then washed, collected by centrifugation, and treated with RNase A (100 μg/mL, Sigma‐Aldrich) for 30 min at 37°C, followed by staining with propidium iodide (50 μg/mL) for 15 min at 37°C. Finally, the percentages of cells in each phase of the cell cycle were determined using FACSCalibur flow cytometry (BD Biosciences—San Jose, CA, USA). Cell‐cycle distribution was analyzed using ModFit LT V3.3 software.

[9] = test system: GNP15; test: Resazurin cellular growth inhibition, GNP15; format: cell-based; conditions: 72 hours, triplicate; read-out: IC50 (nM, Cellular growth inhibition) GNP15 (supplement)
Method: as §4

[10] = test system: tubulin; set-up: method as in PMID 37895970; conditions: read-out: IC50 for tubulin destabilization (literature); cited from earlier work
[11] = 72 h, mean ± SD, n = 3, read-out: IC50 (nM) CAL‐27
[12] = 72 hours, triplicate, read-out: IC50 (nM, Cellular growth inhibition) CAL-27 (supplement)
[13] = 72 h, mean ± SD, n = 3, read-out: IC50 (nM) BT‐20
[14] = 72 hours, triplicate, read-out: IC50 (nM, Cellular growth inhibition) BT-20 (supplement)
[15] = 72 h, mean ± SD, n = 3, read-out: IC50 (nM) HGC‐27
[16] = 72 hours, triplicate, read-out: IC50 (nM, Cellular growth inhibition) HGC-27 (supplement)

SMILES	IC50 [1, 11]	IC50 [1, 12]	IC50 [2, 13]	IC50 [2, 14]	IC50 [3, 15]	IC50 [3, 16]	growth inhibitory activity against NUGC3 [5]	IC50 [7]	also measured
COc1ccc2c(C(=O)c3cc(OC)c(OC)c(OC)c3)c[nH]c2c1 [BPR0L075, reference compound]	2 ± 0.1 nM	48 ± 16 nM	4 ± 1.1 nM	3 ± 0.6 nM	5 ± 1.4 nM	45 ± 7 nM	demonstrated growth inhibitory activity	–	fold improvement in antiproliferative activity over combretastatin A‐4 ([4]; MKN‐45 cells): > 10 fold
COc1ccc(/C=C\c2cc(OC)c(OC)c(OC)c2)cc1O [Combretastatin A-4, combretastatin A‐4]	–	–	–	–	–	–	no appreciable effect	–	–
COc1ccc2c(C(=O)c3cc(OC)c(OC)c(OC)c3)ccn2c1 [Compound 7f, (6‐methoxyindolizin‐1‐yl)(3,4,5‐trimethoxyphenyl)methanone]	105 ± 21 nM	475 ± 105 nM	111 ± 28 nM	105 ± 21 nM	475 ± 105 nM	111 ± 28 nM	–	14.8 µM	inhibition at 50 µM ([1]; 72 h, mean ± SD, n = 3, read-out: % Cellular growth inhibition (at 50 µM) CAL‐27): 58 ± 1.3%; inhibition at 50 µM ([2]; 72 h, mean ± SD, n = 3, read-out: % Cellular growth inhibition (at 50 µM) BT‐20): 43 ± 0.8%; inhibition at 50 µM ([3]; 72 h, mean ± SD, n = 3, read-out: % Cellular growth inhibition (at 50 µM) HGC‐27): 43 ± 0.7%; IC50 [6]: > 50000 nM; cell‐cycle distribution [8]: significant accumulation of cells in the G2/M phase; IC50 [9]: > 50000 nM; IC50 ([4]; MKN‐45 gastric cancer cells): 80 nM
CC(=O)O[C@H]1C(=O)[C@@]2(C)[C@H]([C@H](OC(=O)c3ccccc3)[C@]3(O)C[C@H](OC(=O)[C@H](O)[C@@H](NC(=O)c4ccccc4)c4ccccc4)C(C)=C1C3(C)C)[C@]1(OC(C)=O)CO[C@@H]1C[C@@H]2O [Paclitaxel, reference compound]	3 ± 0.6 nM	5 ± 1.4 nM	45 ± 7 nM	2 ± 0.1 nM	48 ± 16 nM	4 ± 1.1 nM	–	8.2 µM	inhibition at 2 µM ([1]; 2 μM, 72 h, mean ± SD, read-out: % Cellular growth inhibition CAL‐27, positive control): 54 ± 1.2%; inhibition at 50 µM ([1]; 72 hours, triplicate, read-out: % Cellular growth inhibition (at 50 µM) CAL-27 (supplement)): 54 ± 1.2%; inhibition at 2 µM ([2]; 2 μM, 72 h, mean ± SD, read-out: % Cellular growth inhibition BT‐20, positive control): 50 ± 1%; inhibition at 50 µM ([2]; 72 hours, triplicate, read-out: % Cellular growth inhibition (at 50 µM) BT-20 (supplement)): 50 ± 1%; inhibition at 2 µM ([3]; 2 μM, 72 h, mean ± SD, read-out: % Cellular growth inhibition HGC‐27, positive control): 46 ± 1.8%; inhibition at 50 µM ([3]; 72 hours, triplicate, read-out: % Cellular growth inhibition (at 50 µM) HGC-27 (supplement)): 46 ± 1.8%; effect on tubulin polymerization curves (RFU) ([7]; compounds 5 µM, vs control and paclitaxel): promoted rapid and sustained polymerization
COc1ccc(N(C)c2nc(C)nc3ccccc23)cc1 [Verubulin, reference compound]	2 ± 0.3 nM	3 ± 0.4 nM	5 ± 0.7 nM	2 ± 0.3 nM	3 ± 0.4 nM	5 ± 0.7 nM	–	3.2 µM	IC50 [10]: 3200 ± 700 nM
